What was measured:
Assay type in all cases: cell-based
[1] = tested on: Streptococcus pyogenes 308A; assay: MIC against standard strains (agar dilution); settings: standard strain Streptococcus pyogenes 308A, 37° C., 18 to 20 hours, read-out: Minimum Inhibitory Concentration (MIC)
[2] = tested on: Streptococcus faecium MD 8b; assay: MIC against standard strains (agar dilution); settings: Enterococcus faecium, MD8B, standard strain Streptococcus faecium MD 8b, 37° C., 18 to 20 hours, read-out: Minimum Inhibitory Concentration (MIC)
[3] = tested on: Staphylococcus aureus 503; assay: MIC against standard strains (agar dilution); settings: standard strain Staphylococcus aureus 503, 37° C., 18 to 20 hours, read-out: Minimum Inhibitory Concentration (MIC)
Escherichia coli DC 2 = assay: MIC against standard strains (agar dilution); settings: DC2; standard strain Escherichia coli DC 2; agar, 37° C., 18 to 20 hours; read-out: Minimum Inhibitory Concentration (MIC)
Escherichia coli TEM = assay: MIC against standard strains (agar dilution); settings: standard strain Escherichia coli TEM, 37° C., 18 to 20 hours, read-out: Minimum Inhibitory Concentration (MIC)
Escherichia coli 1507E = assay: MIC against standard strains (agar dilution); settings: standard strain Escherichia coli 1507E, 37° C., 18 to 20 hours, read-out: Minimum Inhibitory Concentration (MIC)
[4] = tested on: Pseudomonas aeruginosa 1592E; assay: MIC against standard strains (agar dilution); settings: standard strain Pseudomonas aeruginosa 1592E, 37° C., 18 to 20 hours, read-out: Minimum Inhibitory Concentration (MIC)
[5] = tested on: Pseudomonas aeruginosa 1771; assay: MIC against standard strains (agar dilution); settings: standard strain Pseudomonas aeruginosa 1771, 37° C., 18 to 20 hours, read-out: Minimum Inhibitory Concentration (MIC)
[6] = tested on: Pseudomonas aeruginosa 1771M; assay: MIC against standard strains (agar dilution); settings: read-out: Minimum Inhibitory Concentration (MIC)
Salmonella typhimurium = assay: MIC against standard strains (agar dilution); settings: Salmonella enterica, standard strain Salmonella typhimurium, 37° C., 18 to 20 hours, read-out: Minimum Inhibitory Concentration (MIC)
Klebsiella cxytoca 1082E = assay: MIC against standard strains (agar dilution); settings: standard strain Klebsiella cxytoca 1082E, 37° C., 18 to 20 hours, read-out: Minimum Inhibitory Concentration (MIC)
Enterobacter cloacae P99 = assay: MIC against standard strains (agar dilution); settings: standard strain Enterobacter cloacae P99, 37° C., 18 to 20 hours, read-out: Minimum Inhibitory Concentration (MIC)
Staphylococcus coagulase = assay: MIC against clinically isolated aerobic Gram-positive strains
Streptococcus pyogenes = assay: as above; settings: 15 strains
Streptococcus agalactiae = assay: as above; settings: 15 strains
Streptococcus pneumoniae = assay: as above; settings: 22 strains
Citrobacter freundii = assay: MIC against clinically isolated aerobic Gram-negative strains; settings: 14 strains
Klebsiella pneumoniae = assay: as above; settings: 30 strains
Enterobacter cloacae = assay: as above; settings: 29 strains
Enterobacter aerogenes = assay: as above; settings: 14 strains
Serratia marcescens = assay: as above; settings: 14 strains
Proteus mirabilis = assay: as above; settings: 15 strains
Proteus vulgaris = assay: as above; settings: 15 strains
Providentia sp. = assay: as above; settings: 13 strains
Clostridium difficile = assay: MIC against clinically isolated anaerobic Gram-positive strains; settings: 15 strains
Experimental: The in vitro antibacterial activities of the sodium 3-carboxylate compound of the present invention prepared in the above Example were measured against standard strains (Table 1), clinically isolated aerobic Gram-positive strains (Table 2), clinically isolated aerobic Gram-negative strains (Table 3), clinically isolated anaerobic Gram-positive strains (Table 4) and clinically isolated anaerobic Gram-negative strains (Table 5) using Gram-positive bacteria such as Streptococcus and Staphylococcus, Gram-negative bacteria such as Escherichia, Salmonella, Krebsiella and Enterobacter. Imipenem (IPM), meropenem (MPM) and ertapenem (EPM) were used as control groups.
The results are shown in Tables 1 to 5, and MIC50 and MIC90 represent the concentrations at which the test strain's growth was inhibited to the extents of 50% and 90%, respectively.

Bacteroides fragilis = assay: MIC against clinically isolated anaerobic Gram-negative strains; settings: 34 strains
[7] = tested on: Bacteroides thetaiotaomicron; assay: as above; settings: clinically isolated anaerobic Bacteroides thetaiotaomicron, 15 strains
Bacteroides spp. = assay: as above; settings: 11 strains

SMILES: C[C@@H](O)[C@H]1C(=O)N2C(C(=O)O)=C(S[C@@H]3CN[C@H](/C=C/c4cc(C(=O)O)no4)C3)[C@H](C)[C@H]12 [Example, (1R,5S,6S,8R,3′S,5′S)-2-{5′-[(E)-2-(3-carboxylic acid or sodium carboxylate-5-isoxazolo)ethenyl]pyrrolidin-3′-ylthio}-6-(1-hydroxyethyl)-1-methylcarbapen-2-em-3-carboxylic acid]
- MIC [1]: 0.049 µg/mL
- MIC [2]: 12.5 µg/mL
- MIC [3]: 0.098 µg/mL
- MIC (Escherichia coli DC 2): 0.025 µg/mL
- MIC (Escherichia coli TEM): 0.025 µg/mL
- MIC (Escherichia coli 1507E): 0.025 µg/mL
- MIC [4]: 0.195 µg/mL
- MIC [5]: 0.391 µg/mL
- MIC [6]: 0.391 µg/mL
- MIC (Salmonella typhimurium): 0.049 µg/mL
- MIC (Klebsiella cxytoca 1082E): 0.049 µg/mL
- MIC (Enterobacter cloacae P99): 0.098 µg/mL
- MIC50 (Staphylococcus coagulase; Staphylococcus): 0.12 µg/mL
- MIC90 (Staphylococcus coagulase; Staphylococcus): 0.25 µg/mL
- MIC Range (Staphylococcus coagulase; clinically isolated Staphylococcus coagulase, 22 strains): 0.06 to 0.5 µg/mL
- MIC50 (Streptococcus pyogenes): < 0.008 µg/mL
- MIC90 (Streptococcus pyogenes): < 0.008 µg/mL
- MIC Range (Streptococcus pyogenes): <0.008 µg/mL
- MIC50 (Streptococcus agalactiae): 0.008 µg/mL
- MIC90 (Streptococcus agalactiae): 0.015 µg/mL
- MIC Range (Streptococcus agalactiae): 0.008 to 0.015 µg/mL
- MIC50 (Streptococcus pneumoniae): 0.008 µg/mL
- MIC90 (Streptococcus pneumoniae): 0.12 µg/mL
- MIC Range (Streptococcus pneumoniae): 0.008 to 0.25 µg/mL
- MIC50 (Citrobacter freundii): 0.03 µg/mL
- MIC90 (Citrobacter freundii): 0.12 µg/mL
- MIC Range (Citrobacter freundii): 0.015 to 0.25 µg/mL
- MIC50 (Klebsiella pneumoniae): 0.03 µg/mL
- MIC90 (Klebsiella pneumoniae): 0.12 µg/mL
- MIC Range (Klebsiella pneumoniae): 0.015 to 0.25 µg/mL
- MIC50 (Enterobacter cloacae): 0.12 µg/mL
- MIC90 (Enterobacter cloacae): 0.5 µg/mL
- MIC Range (Enterobacter cloacae): 0.015 to 2 µg/mL
- MIC Range (Enterobacter aerogenes): 0.015 to 0.12 µg/mL
- MIC50 (Enterobacter aerogenes; Klebsiella aerogenes): 0.06 µg/mL
- MIC90 (Enterobacter aerogenes; Klebsiella aerogenes): 0.25 µg/mL
- MIC50 (Serratia marcescens): 0.03 µg/mL
- MIC90 (Serratia marcescens): 16 µg/mL
- MIC Range (Serratia marcescens): 0.03 to 16 µg/mL
- MIC50 (Proteus mirabilis): 0.03 µg/mL
- MIC90 (Proteus mirabilis): 0.06 µg/mL
- MIC Range (Proteus mirabilis): 0.015 to 0.06 µg/mL
- MIC50 (Proteus vulgaris): 0.06 µg/mL
- MIC90 (Proteus vulgaris): 0.06 µg/mL
- MIC Range (Proteus vulgaris): 0.03 to 0.06 µg/mL
- MIC50 (Providentia sp.): 0.06 µg/mL
- MIC90 (Providentia sp.): 8 µg/mL
- MIC Range (Providentia sp.): 0.008 to 8 µg/mL
- MIC Range (Clostridium difficile): 2 to 4 µg/mL
- MIC50 (Clostridium difficile; Clostridioides difficile): 4 µg/mL
- MIC90 (Clostridium difficile; Clostridioides difficile): 4 µg/mL
- MIC50 (Bacteroides fragilis): 0.5 µg/mL
- MIC90 (Bacteroides fragilis): 1 µg/mL
- MIC Range (Bacteroides fragilis): 0.25 to 4 µg/mL
- MIC Range [7]: 0.5 to 8 µg/mL
- MIC50 ([7]; read-out: MIC50): 1 µg/mL
- MIC90 ([7]; read-out: MIC90): 4 µg/mL
- MIC50 (Bacteroides spp.): 1 µg/mL
- MIC90 (Bacteroides spp.): 1 µg/mL
- MIC Range (Bacteroides spp.): 1 to 2 µg/mL

— US20080039438A1, “1B-Methylcarbapenem Derivative and Process for the Preparation Thereof” (Korea Institute of Science and Technology, priority 2004, published 2008)
